Measured values from patent US20260226048A1, “MULTI-CYCLIC IRAK AND FLT3 INHIBITING COMPOUNDS AND USES THEREOF” (CHILDREN'S HOSPITAL MEDICAL CENTER, priority 2023, published 2026).

Key:
FLT3 K663Q = target: T1, FLT3 K663Q (Homo sapiens, UniProt P36888, K663Q); assay: DiscoverX KINOMEscan competition binding assay, FLT3 K663Q; details: 11-point 3-fold dilution
T1 construct: purchased DiscoverX (KINOMEscan); host or cells: E. coli BL21-derived host (T7 phage) or HEK-293
T1 sequence (P36888 27-993 K663Q): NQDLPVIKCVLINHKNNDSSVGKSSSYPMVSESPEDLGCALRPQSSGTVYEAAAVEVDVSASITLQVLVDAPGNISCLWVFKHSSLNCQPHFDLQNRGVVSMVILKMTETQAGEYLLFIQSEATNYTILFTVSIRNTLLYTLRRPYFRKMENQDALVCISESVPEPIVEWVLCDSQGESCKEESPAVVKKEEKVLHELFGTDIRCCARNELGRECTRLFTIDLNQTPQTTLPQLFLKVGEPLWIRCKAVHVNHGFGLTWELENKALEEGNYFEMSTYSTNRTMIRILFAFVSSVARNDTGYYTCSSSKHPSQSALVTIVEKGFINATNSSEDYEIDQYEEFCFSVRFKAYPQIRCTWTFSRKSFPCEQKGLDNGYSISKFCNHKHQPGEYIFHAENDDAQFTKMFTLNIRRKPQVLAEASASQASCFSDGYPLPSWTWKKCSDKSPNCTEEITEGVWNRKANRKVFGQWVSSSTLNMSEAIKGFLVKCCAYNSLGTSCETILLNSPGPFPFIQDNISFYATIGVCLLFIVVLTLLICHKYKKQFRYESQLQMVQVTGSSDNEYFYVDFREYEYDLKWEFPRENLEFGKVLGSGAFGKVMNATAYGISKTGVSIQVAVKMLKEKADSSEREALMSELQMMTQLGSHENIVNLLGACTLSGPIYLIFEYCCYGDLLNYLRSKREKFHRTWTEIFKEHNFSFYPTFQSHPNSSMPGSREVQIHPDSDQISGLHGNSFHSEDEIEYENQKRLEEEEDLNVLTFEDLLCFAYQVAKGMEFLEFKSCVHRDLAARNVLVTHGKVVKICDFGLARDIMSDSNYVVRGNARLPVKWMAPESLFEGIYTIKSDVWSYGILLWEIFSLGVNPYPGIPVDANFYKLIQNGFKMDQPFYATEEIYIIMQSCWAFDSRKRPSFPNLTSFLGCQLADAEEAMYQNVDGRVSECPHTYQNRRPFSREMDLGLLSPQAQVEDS
From the text: (§1) […]. […] As a result, the data report thermodynamic interaction affinities (Kd values), rather than IC50 values that are dependent on ATP concentrations. The assay uses a DNA-tagged version of the protein kinase, and an immobilized ligand bound to a solid support. Compounds that directly or indirectly prevent kinase binding to the immobilized ligand reduce the amount of kinase captured on the solid support, which is detected using an ultra-sensitive qPCR method. Affinity constants reported from the assay have been reported to be independent of the immobilized ligand used that is coupled to the solid support (See supplemental information in Fabian, M. A. et. al., (2005) Nat. Biotechnol. 23, 329-336; Wodicka, L. M. et. al., (2010) Chem. Biol. 17, 1241-1249.)
(§2) Kinase-tagged T7 phage strains were prepared in an E. coli host derived from the BL21 strain. E. coli were grown to log-phase and infected with T7 phage and incubated with shaking at 32° C. until lysis. The lysates were centrifuged and filtered to remove cell debris. The remaining kinases were produced in HEK-293 cells and subsequently tagged with DNA for qPCR detection. Streptavidin-coated magnetic beads were treated with biotinylated small molecule ligands for 30 minutes at room temperature to generate affinity resins for kinase assays. The liganded beads were blocked with excess biotin and washed with blocking buffer (SeaBlock (Pierce), 1% BSA, 0.05% Tween 20, 1 mM DTT) to remove unbound ligand and to reduce non-specific binding. […] Test compounds were prepared as 111× stocks in 100% DMSO. Kds were determined using an 11-point 3-fold compound dilution series with three DMSO control points. All compounds for Kd measurements are distributed by acoustic transfer (non-contact dispensing) in 100% DMSO. The compounds were then diluted directly into the assays such that the final concentration of DMSO was 0.9%. All reactions were performed in polypropylene 384-well plates. Each was a final volume of 0.02 mL. […] The kinase concentration in the eluates was measured by qPCR.
(§3) Binding constants (Kds) were calculated with a standard dose-response curve using the Hill equation. The Hill Slope was set to −1. Curves were fitted using a non-linear least square fit with the Levenberg-Marquardt algorithm.

FLT3 Autoinh. = target: T2, FLT3 Autoinh. (Homo sapiens, UniProt P36888); assay: DiscoverX KINOMEscan competition binding assay, FLT3 Autoinh.; details: 11-point 3-fold dilution
T2 construct: purchased DiscoverX (KINOMEscan); host or cells: E. coli BL21-derived host (T7 phage) or HEK-293
T2 sequence (P36888 564-993 limits assumed): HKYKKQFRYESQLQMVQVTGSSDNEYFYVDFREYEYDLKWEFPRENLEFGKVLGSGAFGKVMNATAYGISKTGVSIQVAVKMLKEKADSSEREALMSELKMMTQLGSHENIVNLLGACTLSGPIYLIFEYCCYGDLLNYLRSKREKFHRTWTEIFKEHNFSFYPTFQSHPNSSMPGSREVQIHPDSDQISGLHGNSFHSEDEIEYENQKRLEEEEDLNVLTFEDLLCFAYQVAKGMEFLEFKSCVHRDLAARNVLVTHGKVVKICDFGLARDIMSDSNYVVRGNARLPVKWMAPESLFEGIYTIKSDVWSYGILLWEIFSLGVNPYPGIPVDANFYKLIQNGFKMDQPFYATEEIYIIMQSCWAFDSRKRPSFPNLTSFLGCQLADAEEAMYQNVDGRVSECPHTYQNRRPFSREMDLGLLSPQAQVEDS
From the text: as §1, §2, §3

COc1cc2ncc(-c3nc(N[C@H]4CNCC[C@@H]4F)ncc3F)n2nc1C1CC1 [Compound 1a, 4-(6-cyclopropyl-7-methoxyimidazo[1,2-b]pyridazin-3-yl)-5-fluoro-N-((3S,4S)-4-fluoropiperidin-3-yl)pyrimidin-2-amine]
Kd (FLT3 K663Q): 0.27 nM | Kd (FLT3 Autoinh.): 2.2 nM

FC(F)COc1cc2ncc(-c3ccnc(N[C@H]4CNCC[C@@H]4F)n3)n2nc1C1CC1 [Compound 4a, 4-(6-cyclopropyl-7-(2,2-difluoroethoxy)imidazo[1,2-b]pyridazin-3-yl)-N-((3 S,4S)-4-fluoropiperidin-3-yl)pyrimidin-2-amine]
Kd (FLT3 K663Q): 2.3 nM | Kd (FLT3 Autoinh.): 21 nM

COc1cc2ncc(-c3nc(N[C@H]4CNCC[C@@H]4F)ncc3F)n2nc1C(C)(C)O [Compound 45a, 2-(3-(5-fluoro-2-(((3S,4S)-4-fluoropiperidin-3-yl)amino)pyrimidin-4-yl)-7-methoxyimidazo[1,2-b]pyridazin-6-yl)propan-2-ol]
Kd (FLT3 K663Q): 3.5 nM | Kd (FLT3 Autoinh.): 11 nM

CC(C)(O)c1ccc2ncc(-c3nc(N[C@H]4CNCC[C@@H]4F)ncc3F)n2c1 [Compound 46a, 2-(3-(5-fluoro-2-(((3S,4S)-4-fluoropiperidin-3-yl)amino)pyrimidin-4-yl)imidazo[1,2-a]pyridin-6-yl)propan-2-ol]
Kd (FLT3 K663Q): 3.7 nM | Kd (FLT3 Autoinh.): 7.1 nM

COc1cc2ncc(-c3nc(N[C@H]4CNCC[C@@H]4F)ncc3F)n2nc1C1COC1 [Compound 92a, 5-fluoro-N-((3S,4S)-4-fluoropiperidin-3-yl)-4-(7-methoxy-6-(oxetan-3-yl)imidazo[1,2-b]pyridazin-3-yl)pyrimidin-2-amine]
Kd (FLT3 K663Q): 0.49 nM | Kd (FLT3 Autoinh.): 3.3 nM

CC(C)(O)c1cn2c(-c3nc(N[C@H]4CNCC[C@@H]4F)ncc3F)cnc2cn1 [Compound 100a, 2-(3-(5-fluoro-2-(((3S,4S)-4-fluoropiperidin-3-yl)amino)pyrimidin-4-yl)imidazo[1,2-a]pyrazin-6-yl)propan-2-ol]
Kd (FLT3 K663Q): 30 nM | Kd (FLT3 Autoinh.): 57 nM

COc1cc2ncc(-c3nc(N[C@H]4CNCC[C@@H]4F)ncc3F)n2nc1N1CCCS1(=O)=O [Compound 112a, 2-(3-(5-fluoro-2-(((3S,4S)-4-fluoropiperidin-3-yl)amino)pyrimidin-4-yl)-7-methoxyimidazo[1,2-b]pyridazin-6-yl)isothiazolidine 1,1-dioxide]
Kd (FLT3 K663Q): 0.31 nM | Kd (FLT3 Autoinh.): 2.7 nM
